Where “and” joins values, the source holds several entries; their conditions need not be identical. Equal entries are not always repeated. Where two headings read alike, the source gives them in different places.
Experiments:
[1] = tested on: bleeding events in patients hospitalized for acute medical illness; assay: MAGELLAN (Study 1): safety, bleeding events and adverse events; format: in vivo, human; details: for Fatal bleeding events, number: Day 1 to 10; for Treatment-emergent fatal bleeding events, number: Day 1 to 35; for Pulmonary embolism confirmed (deaths), number: entire study duration; for Investigator-reported deaths, incidence / VTE-related deaths, incidence: entire study duration (Day 1 to 90); for Bleeding events that required blood transfusions of 2 units / Bleeding events that resulted in a fall of Hb to ≥2 g/dL / Investigator-reported TEAEs leading to permanent discontinuation of study drug: in vivo
Excerpt: The safety component of Criteria for Evaluation was the primary safety endpoint of incidence of the composite of treatment-emergent major bleeding events and non-major clinically relevant bleeding events observed during treatment and not later than 2 days after the last intake of double-blind study drug.
The primary safety outcome of the study was the treatment-emergent clinically relevant bleeding events, which were a composite of treatment-emergent adjudicated major bleeding events and clinically relevant non-major bleeding events.
The safety analysis was performed on 7998 randomized subjects who received at least one dose of study drug, rivaroxaban (3997 subjects) or enoxaparin (4001 subjects).
The primary safety outcome of the study was the assessment of clinically relevant bleeding events, which are a composite of treatment-emergent adjudicated major bleeding events and clinically relevant non-major bleeding events.

[2] = MAGELLAN (Study 1): pharmacokinetics; format: in vivo, human; details: for AUC: plasma
Procedure: A subset of approximately 125 subjects was to be stratified into 5 groups (of 25 subjects) based on the major diagnoses. The following pharmacokinetic (PK) parameters were calculated on Day 1 and Day 10: area under the plasma concentration curve (AUC), area under the curve normalized to body weight (AUCnorm), area under the curve for the expected dosing interval obtained after single dose administration (AUCτ), AUCτ, norm, maximum serum concentration (Cmax), maximum and normalized serum concentration (Cmax, norm), time to reach maximum concentration in plasma (tmax), half-life (t1/2), and total body clearance of drug from plasma calculated after oral administration (CL/F).

[3] = tested on: coagulation parameters (PT, PiCT, D-dimer); assay: MAGELLAN (Study 1): pharmacodynamics (PT, PiCT, D-dimer); format: in vivo, human; details: for Prothrombin time, overall median: full profile sampling
Procedure: (§1) Full profile pharmacodynamics (PD) sampling was performed in parallel to the PK samples on Day 1 and Day 10. In addition, sparse PD sampling was performed in nearly all subjects at 5 predefined time points: prior to study drug administration, around the time of peak plasma concentrations (2 to 4 hours after intake of the rivaroxaban tablet or rivaroxaban placebo tablet) on the first, 10th and 35th day of study drug administration, and before study drug administration on Day 10.
Coagulation parameters assessed included international normalized ratio (INR), prothrombin time (PT), prothrombinase-induced clotting time (PiCT), and the fibrin degradation product, D-dimer. Pharmacodynamic parameters assessed included changes to baseline of the maximal effect (Emax) and changes to baseline at trough (Etrough).
as §1, with “Two sets of samples were evaluated for PD parameters: Full” for “Full”, “PD” for “pharmacodynamics (PD)”, “sampling” for “sampling was performed”, “approximately” for “around”

[4] = tested on: events prevented vs bleeding events caused; assay: MARINER benefit-risk analysis (excess number of events per 10,000 subjects); format: in vivo, human
Procedure: The benefit-risk of rivaroxaban versus placebo was evaluated based on the excess number of events between treatments for events intended to be prevented (benefits) and events that were caused (risks).
Although the primary efficacy endpoint was not statistically different between rivaroxaban and placebo, the benefit-risk analyses were conducted to further assess the totality of the data. Based on the ITT analysis set and Up-to-Day 45 analysis phase, for 10,000 subjects treated with rivaroxaban up to 45 days, on average, rivaroxaban would prevent 27 events of the composite of symptomatic VTE and VTE-related death, while causing 12 more major bleeding events than with placebo. […] Therefore, focusing instead on major thrombotic events that were fatal or caused potentially irreversible harm, on average, rivaroxaban would prevent 55 events of the composite of nonfatal PE, MI, non-hemorrhagic stroke, and non-hemorrhagic ACM, while causing 2 more events of the composite of critical site bleeding and fatal bleeding than with placebo.

[5] = tested on: bleeding events in high-risk, medically ill subjects; assay: MARINER (Study 2): safety, ISTH bleeding and adverse events
Excerpt: The safety objectives were to compare rivaroxaban with placebo in the following bleeding outcomes in high-risk, medically ill subjects: • Major bleeding using validated International Society on Thrombosis and Haemostasis (ISTH) bleeding criteria. • Non-major clinically relevant (NMCR) bleeding. • Other bleeding.
Safety assessment was based on bleeding events classified by validated ISTH criteria as major bleeding (principal safety outcome), NMCR bleeding, or Other bleeding. […] The safety outcome of NMCR bleeding was defined as overt bleeding not meeting ISTH criteria for major bleeding, but associated with medical intervention, unscheduled contact (visit or telephone call) with a physician, (temporary) cessation of study treatment, or associated with discomfort for the subject such as pain or impairment of activities of daily life. […] Overall safety was also assessed.
The principal safety outcome was major bleeding based on validated ISTH criteria. Treatments were compared using the same statistical model (i.e., Cox proportional hazards model) as that for the primary efficacy outcome. The same analyses were used for NMCR bleeding. Safety analyses were based on the safety analysis set and on-treatment analysis phase. Bleeding events were analyzed based on time from randomization to the first occurrence.

[6] = rivaroxaban-enoxaparin phase (Day 1 to 10)
[7] = rivaroxaban-enoxaparin/placebo phase (Day 1 to 35)
[8] = rivaroxaban-placebo phase (Day 10 to 35)
[9] = acute respiratory insufficiency, Baseline
[10] = acute respiratory insufficiency, Day 1 peak
[11] = acute respiratory insufficiency, Day 10 peak
[12] = acute respiratory insufficiency, Day 10 trough
[13] = entire study population, Baseline
[14] = entire study population, Day 1 peak
[15] = entire study population, Day 10 peak
[16] = entire study population, Day 35 peak
[17] = 10 mg dose stratum, for 10,000 subjects
[18] = for 10,000 subjects treated up to 45 days

Compound: O=C(NC[C@H]1CN(c2ccc(N3CCOCC3=O)cc2)C(=O)O1)c1ccc(Cl)s1 [Rivaroxaban, 5-chloro-N-({(5S)-2-oxo-3-[4-(3-oxo-4-morpholinyl)phenyl]-1,3,oxazolidin-5-yl}methyl)-2-thiophenecarboxamide]
- Fatal bleeding events, number ([1]; entire population): 5 cases
- Treatment-emergent fatal bleeding events, number [1]: 7 subjects
- Major bleeding events, incidence ([1]; Day 1 to Day 10): 0.6%
- Intracranial bleeding site (critical site bleeding), incidence ([1]; Day 1 to Day 35): 0.1%
- Investigator-reported SAEs, incidence ([1]; Day 1 to Day 35): 2.0%
- Investigator-reported TEAEs, incidence ([1]; Day 1 to Day 35): 12.5%
- Investigator-reported drug-related TEAEs, incidence ([1]; Day 1 to Day 35): 6.9%
- Major bleeding events, incidence ([1]; Day 1 to Day 35): 1.1%
- Major bleeding events, incidence ([1]; Day 10 to Day 35): 0.5%
- Clinically relevant non-major bleeding events, incidence ([1]; all phases of the study): 4.0%
- Major bleeding events, incidence ([1]; all phases of the study): 1.6%
- Minimal bleeding events, incidence ([1]; all phases of the study): 9.6%
- Major bleeding, RR vs enoxaparin-placebo ([1]; entire MAGELLAN population, through Day 35): 2.87
- Fatal bleeds, incidence ([1]; entire population, Day 10): 0.1%
- Major bleeding, relative risk ([1]; entire population, Day 10): 2.18
- Fatal bleeds, incidence ([1]; entire population, Day 35): 0.2%
- Pulmonary embolism confirmed (deaths), number [1]: 2 subjects
- Investigator-reported deaths, incidence [1]: 7.0%
- VTE-related deaths, incidence [1]: 1.0%
- Major bleeding events, incidence ([1]; follow-up phase): 0.6%
- Bleeding events that required blood transfusions of 2 units [1]: 0.6%
- Bleeding events that resulted in a fall of Hb to ≥2 g/dL [1]: 0.8%
- Investigator-reported TEAEs leading to permanent discontinuation of study drug [1]: 3.1%
- Clinically relevant bleeding events, incidence [1, 6]: 2.8%
- Relative risk, clinically relevant bleeding [1, 6]: 2.272
- Clinically relevant bleeding events, incidence [1, 7]: 4.1%
- Relative risk, clinically relevant bleeding [1, 7]: 2.46 and 2.455
- Clinically relevant bleeding events, incidence [1, 8]: 1.4%
- Relative risk, clinically relevant bleeding [1, 8]: 2.958
- Cmax ([2]; Day 10, subjects with acute infectious disease): 178.9 ng/mL
- AUC ([2]; human, oral, 10 mg, Day 1, overall, 10 mg): 1640 ng·h/mL
- AUC ([2]; human, oral, 10 mg, Day 10, overall, 10 mg): 1360 ng·h/mL
- AUC ([2]; human, oral, 10 mg, Day 10, subjects with CHF NYHA IV): 1440 ng·h/mL
- AUC ([2]; human, oral, 10 mg, Day 10, subjects with acute infectious disease): 1190 ng·h/mL
- Cmax ([2]; human, serum, oral, 10 mg, Day 1, overall, 10 mg, read-out: Cmax): 176 ng/mL
- Cmax ([2]; human, serum, oral, 10 mg, Day 10, overall, 10 mg, read-out: Cmax): 189 ng/mL
- Cmax ([2]; human, serum, oral, 10 mg, Day 10, subjects with CHF NYHA IV, read-out: Cmax): 192 ng/mL
- Mean peak concentration expressed in IU/mL (PiCT two step) ([3]; Day 1): below the lower limit of quantitation
- Mean peak concentration of rivaroxaban (PiCT one step) ([3]; Day 1): 198.8 µg/L
- Mean peak concentration expressed in IU/mL (PiCT two step) ([3]; Day 10): below the lower limit of quantitation
- Mean peak concentration of rivaroxaban (PiCT one step) ([3]; Day 10): 202.78 µg/L
- Mean peak concentration of rivaroxaban (PiCT one step) ([3]; Day 35): 168 µg/L
- D-dimer, median ([3]; acute infectious disease, Baseline): 1.76 µg/mL
- D-dimer, median ([3]; acute infectious disease, Day 1 peak): 2.07 µg/mL
- D-dimer, median ([3]; acute infectious disease, Day 10 peak): 2.13 µg/mL
- D-dimer, median ([3]; acute infectious disease, Day 10 trough): 1.74 µg/mL
- D-dimer, median [3, 9]: 1.48 µg/mL
- D-dimer, median [3, 10]: 1.44 µg/mL
- D-dimer, median [3, 11]: 1.37 µg/mL
- D-dimer, median [3, 12]: 1.18 µg/mL
- D-dimer, median [3, 13]: 0.94 µg/mL
- D-dimer, median [3, 14]: 0.90 µg/mL
- D-dimer, median [3, 15]: 0.64 µg/mL
- D-dimer, median [3, 16]: 0.45 µg/mL
- Prothrombin time, overall median ([3]; peak Day 1): 23.5 s
- Prothrombin time, overall median ([3]; peak Day 10): 23.2 s
- Change in clotting time, PiCT two step ([3]; sparse sampling): No change
- Prothrombin time, median ([3]; sparse sampling, Baseline): 14.3 s
- Prolongation of PiCT one step assay ([3]; sparse sampling, Day 1): 14.6 s
- Prothrombin time, median ([3]; sparse sampling, Day 1 peak): 19.3 s
- Prolongation of PiCT one step assay ([3]; sparse sampling, Day 10): 13.1 s
- Prothrombin time, median ([3]; sparse sampling, Day 10 peak): 19.3 s
- Prothrombin time, median ([3]; sparse sampling, Day 35 peak): 18.6 s
- Additional critical site and fatal bleeding vs placebo ([4]; 10 mg dose stratum): no additional
- Events of composite of nonfatal PE, MI, non-hemorrhagic stroke, non-hemorrhagic ACM prevented vs placebo [4, 17]: 63 events
- Events of composite of symptomatic VTE and VTE-related death prevented vs placebo [4, 17]: 33 events
- Events of composite of nonfatal PE, MI, non-hemorrhagic stroke, non-hemorrhagic ACM prevented vs placebo [4, 18]: 55 events
- More events of composite of critical site bleeding and fatal bleeding than with placebo [4, 18]: 2 events
- Events of composite of symptomatic VTE and VTE-related death prevented vs placebo ([4]; for 10,000 subjects treated up to 45 days, ITT): 27 events
- More major bleeding events caused than with placebo ([4]; human, in vivo): 12 events
- Fatal bleeding, incidence ([5]; 10 mg dose stratum): 0.04%
- Fatal bleeding, incidence ([5]; on-treatment, safety analysis set): 0.03%
- AEs with outcome of death, n (%) ([5]; safety analysis set): 95 (1.6) %

Compound: Enoxaparin
- Fatal bleeding events, number ([1]; entire population): 1 cases
- Treatment-emergent fatal bleeding events, number [1]: 1 subjects
- Major bleeding events, incidence ([1]; Day 1 to Day 10): 0.3%
- Investigator-reported SAEs, incidence ([1]; Day 1 to Day 35): 0.8%
- Investigator-reported TEAEs, incidence ([1]; Day 1 to Day 35): 8.5%
- Investigator-reported drug-related TEAEs, incidence ([1]; Day 1 to Day 35): 4.2%
- Major bleeding events, incidence ([1]; Day 1 to Day 35): 0.4%
- Pulmonary bleeding site (critical site bleeding), incidence ([1]; Day 1 to Day 35): 0%
- Retroperitoneal bleeding site (critical site bleeding), incidence ([1]; Day 1 to Day 35): 0%
- Clinically relevant non-major bleeding events, incidence ([1]; all phases of the study): 2.1%
- Major bleeding events, incidence ([1]; all phases of the study): 0.9%
- Minimal bleeding events, incidence ([1]; all phases of the study): 8.2%
- Pulmonary embolism confirmed (deaths), number [1]: 1 subjects
- Investigator-reported deaths, incidence [1]: 6.5%
- VTE-related deaths, incidence [1]: 1.2%
- Major bleeding events, incidence ([1]; follow-up phase): 0.6%
- Bleeding events that required blood transfusions of 2 units [1]: 0.2%
- Bleeding events that resulted in a fall of Hb to ≥2 g/dL [1]: 0.2%
- Investigator-reported TEAEs leading to permanent discontinuation of study drug [1]: 1.5%
- Clinically relevant bleeding events, incidence [1, 6]: 1.2%
- Clinically relevant bleeding events, incidence [1, 7]: 1.7%
- Clinically relevant bleeding events, incidence [1, 8]: 0.5%
- Baseline value expressed in IU/mL (PiCT two step) ([3]; Day 1): below the lower limit of quantitation
- Mean peak concentration expressed in IU/mL (PiCT two step) ([3]; Day 1): 0.32 IU/mL
- Mean peak concentration expressed in IU/mL (PiCT two step) ([3]; Day 10): 0.31 IU/mL
- Trough concentration expressed in IU/mL (PiCT two step) ([3]; Day 10): 0.11 IU/mL
- D-dimer, median [3, 9]: 0.57 µg/mL
- D-dimer, median [3, 10]: 0.66 µg/mL
- D-dimer, median [3, 11]: 0.70 µg/mL
- D-dimer, median [3, 12]: 0.46 µg/mL
- D-dimer, median [3, 13]: 0.95 µg/mL
- D-dimer, median [3, 14]: 0.94 µg/mL
- D-dimer, median [3, 15]: 0.66 µg/mL
- D-dimer, median [3, 16]: 0.67 µg/mL
- Influence on prothrombin time ([3]; in vivo): no influence
- Change in clotting time, PiCT one step ([3]; sparse sampling): No change
- Prothrombin time, median ([3]; sparse sampling, Baseline): 14.4 s
- Prolongation of PiCT two step assay ([3]; sparse sampling, Day 1): 23.6 s
- Prothrombin time, median ([3]; sparse sampling, Day 1 peak): 14.8 s
- Prolongation of PiCT two step assay ([3]; sparse sampling, Day 10): 19.8 s
- Prothrombin time, median ([3]; sparse sampling, Day 10 peak): 14.2 s
- Prothrombin time, median ([3]; sparse sampling, Day 35 peak): 13.8 s

Source: patent US20200397795A1, “PROPHYLACTIC TREATMENT OF VENOUS THROMBOEMBOLISM” (JANSSEN PHARMACEUTICALS, INC., priority 2019, published 2020)
